US8513271B2, “Pyrimidine compounds as delta opioid receptor modulators” (Janssen Pharmaceutica, NV, priority 2009, dated 2013)
Where “and” joins values, the source holds several entries; their conditions need not be identical. Equal values may be shown once. Read-outs that look alike come from different tables or passages of the source.

Legend:
mu opioid receptor = molecular target: T1, mu opioid receptor (Rattus norvegicus, UniProt P33535); experiment: Rat brain mu opioid receptor binding assay; conditions: rat forebrain, [3H]DAMGO ligand
T1 construct: the forebrains were homogenized in Tris buffer in a Teflon®-glass homogenizer; from tissue; host or cells: forebrain of male Wistar rats, particulate (membrane) preparation

delta opioid receptor [1] = molecular target: T2, delta opioid receptor (Rattus norvegicus, UniProt P33533); experiment: Rat brain delta opioid receptor binding assay; conditions: rat forebrain
T2 construct: the forebrains were homogenized in Tris buffer in a Teflon®-glass homogenizer; from tissue; host or cells: forebrain of male Wistar rats, particulate (membrane) preparation

delta opioid receptor [2] = molecular target: T3, delta opioid receptor (Mus musculus, UniProt P32300); experiment: [35S]GTPγS binding assay in NG108-15 cell membranes (delta opioid functional assay), 200 nM screen; format: biochemical; conditions: for EC50 / GTPγS δ-opioid receptor Rel Efficacy / GTPγS δ-RelEfficacy @200 nM: NG108-15 cell membranes; for EC50 / GTPγS δ-RelEfficacy @200 nM: averages if tested more than once; for inhibition at 10 µM: read-out: GTPγS δ-opioid receptor % Inh @10 μM; for GTPγS δ-opioid receptor Rel Efficacy: relative efficacy from dose response; for GTPγS δ-RelEfficacy @200 nM: 200 nM test compound, relative to calculated max of SNC80 dose response curve
T3 construct: NG108-15 cell membranes were purchased from Applied Cell Sciences (Rockville, Md.); host or cells: NG108-15 cell membranes

delta opioid receptor [3] = molecular target: T3, delta opioid receptor; experiment: NG108-15, 24-well delta opioid receptor binding assay
[4] = δ-binding (Naltrindole ligand) Ki, [3H]naltrindole ligand
[5] = GTPγS δ-opioid receptor EC50 (μM)
[6] = [3H]naltrindole ligand, read-out: δ-binding (Naltrindole ligand) Ki
[7] = read-out: GTPγS δ-opioid receptor EC50
[8] = [3H]Naltrindole ligand, NG108-15 cell membranes, read-out: δ-binding NG108 cell membrane Ki

T1 sequence (P33535 whole entry): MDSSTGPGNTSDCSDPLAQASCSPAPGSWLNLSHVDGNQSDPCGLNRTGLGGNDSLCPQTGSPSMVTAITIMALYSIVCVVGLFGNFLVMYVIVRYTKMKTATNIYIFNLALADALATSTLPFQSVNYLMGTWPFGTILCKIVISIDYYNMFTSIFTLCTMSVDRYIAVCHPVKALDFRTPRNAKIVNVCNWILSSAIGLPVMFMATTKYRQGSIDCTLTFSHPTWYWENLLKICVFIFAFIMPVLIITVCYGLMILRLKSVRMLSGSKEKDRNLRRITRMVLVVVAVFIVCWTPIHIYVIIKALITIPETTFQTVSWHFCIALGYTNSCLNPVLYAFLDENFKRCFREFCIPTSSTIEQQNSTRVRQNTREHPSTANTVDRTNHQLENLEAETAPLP
T2 sequence (P33533 whole entry): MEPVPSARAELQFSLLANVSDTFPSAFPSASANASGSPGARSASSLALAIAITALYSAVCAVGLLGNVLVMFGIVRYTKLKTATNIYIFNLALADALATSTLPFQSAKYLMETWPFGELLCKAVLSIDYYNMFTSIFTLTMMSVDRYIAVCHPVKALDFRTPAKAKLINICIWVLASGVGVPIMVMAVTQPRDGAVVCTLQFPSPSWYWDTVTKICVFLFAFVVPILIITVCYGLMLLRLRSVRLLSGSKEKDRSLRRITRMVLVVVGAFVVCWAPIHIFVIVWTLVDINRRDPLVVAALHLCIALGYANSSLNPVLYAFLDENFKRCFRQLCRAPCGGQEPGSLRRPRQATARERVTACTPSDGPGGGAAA
T3 sequence (P32300 whole entry): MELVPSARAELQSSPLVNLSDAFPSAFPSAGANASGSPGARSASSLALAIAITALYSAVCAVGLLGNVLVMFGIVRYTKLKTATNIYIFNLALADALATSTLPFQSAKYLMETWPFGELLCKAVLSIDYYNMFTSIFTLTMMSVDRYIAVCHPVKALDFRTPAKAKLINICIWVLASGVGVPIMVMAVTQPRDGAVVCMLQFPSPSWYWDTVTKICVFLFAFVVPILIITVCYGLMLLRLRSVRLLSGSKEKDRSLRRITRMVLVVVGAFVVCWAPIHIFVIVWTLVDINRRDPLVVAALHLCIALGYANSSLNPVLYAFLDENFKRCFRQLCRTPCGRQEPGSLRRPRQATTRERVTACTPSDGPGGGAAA

SMILES | Ki (delta opioid receptor [1]; [4]) [nM] | GTPγS δ-opioid receptor Rel Efficacy (delta opioid receptor [2]) | Ki (mu opioid receptor; read-out: μ-binding Ki) [nM] | EC50 (delta opioid receptor [2]; [7]) [µM] | other results
COc1ccc(Oc2nc(-c3ccccc3)ncc2NC[C@@H]2CCCN2)cc1 [Cpd 2] | 33 | 0.733 |  |  | Ki (mu opioid receptor; μ-binding Ki): 3140 nM and 3390 nM; Ki (delta opioid receptor [1]; δ-binding (DPDPE ligand) Ki, [3H]DPDPE ligand): 20 nM; EC50 (delta opioid receptor [2]; [5]): 0.43 µM and 0.069 µM; inhibition at 10 µM (delta opioid receptor [2]): 5.79%
COc1ccc(Oc2nc(-c3cccc4ccccc34)ncc2NC[C@@H]2CCCN2)cc1 [Cpd 5] |  | 0.803 | > 10000 | 0.164 | Ki (delta opioid receptor [1]; [6]): 157 nM; inhibition at 10 µM (delta opioid receptor [2]): 18.1%
COc1ccc(Oc2nc(-c3ccncc3)ncc2NC[C@@H]2CCCN2)cc1 [Cpd 7] |  | 0.912 | 2170 | 0.436 | Ki (delta opioid receptor [1]; [6]): 13 nM; inhibition at 10 µM (delta opioid receptor [2]): 17.1%
COc1ccc(Oc2nc(-c3cnc(SC)nc3)ncc2NC[C@@H]2CCCN2)cc1 [Cpd 52] | 0.4 |  | 539 |  | 
COc1ccc(Oc2nc(-c3cnc(OC)nc3)ncc2NC[C@@H]2CCCN2)cc1 [Cpd 53] | 0.2 |  | 591 |  | 
COc1ccc(Oc2nc(-c3cc(F)cc(F)c3)ncc2NC[C@@H]2CCCN2)cc1 [Cpd 55] | 21 |  | 2050 |  | 
COc1ccc(Oc2nc(-c3ccc(F)c(F)c3)ncc2NC[C@@H]2CCCN2)cc1 [Cpd 56] | 15 |  | 1940 | 0.536 | inhibition at 10 µM (delta opioid receptor [2]): 26.3%
COc1ccc(Oc2nc(-c3cnc(OC)nc3OC)ncc2NC[C@@H]2CCCN2)cc1 [Cpd 58] | 4 |  | 640 | 1.51 | inhibition at 10 µM (delta opioid receptor [2]): 12.8%
CCOc1ncc(-c2ncc(NC[C@@H]3CCCN3)c(Oc3ccc(OC)cc3)n2)cn1 [Cpd 60] | 14 | 0.926 |  |  | Ki (mu opioid receptor; μ-binding Ki): 1520 nM; EC50 (delta opioid receptor [2]; [5]): 0.089 µM; inhibition at 10 µM (delta opioid receptor [2]): 3.73%
COc1ccc(Oc2nc(-c3ccn[nH]3)ncc2NC[C@@H]2CCCN2)cc1 [Cpd 61] |  |  | 3990 |  | Ki (delta opioid receptor [1]; [6]): 259 nM
COc1ccc(Oc2nc(-c3c(C)noc3C)ncc2NC[C@@H]2CCCN2)cc1 [Cpd 62] |  |  | 1920 |  | Ki (delta opioid receptor [1]; [6]): 544 nM
COc1ccc(Oc2nc(-c3ccc4c(c3)CCO4)ncc2NC[C@@H]2CCCN2)cc1 [Cpd 63] | 37 |  | 633 | 0.693 | 
COc1ccc(Oc2nc(-c3ccc(OC)c(F)c3)ncc2NC[C@@H]2CCCN2)cc1 [Cpd 64] | 8 | 0.830 |  |  | Ki (mu opioid receptor; μ-binding Ki): 466 nM; EC50 (delta opioid receptor [2]; [5]): 0.088 µM; inhibition at 10 µM (delta opioid receptor [2]): 12%
COc1ccc(Oc2nc(-c3cn[nH]c3)ncc2NC[C@@H]2CCCN2)cc1 [Cpd 65] |  | 0.824 | 555 | 0.339 | Ki (delta opioid receptor [1]; [6]): 3 nM
COc1ccc(Oc2nc(-c3ccnc(SC)n3)ncc2NC[C@@H]2CCCN2)cc1 [Cpd 66, [4-(4-Methoxy-phenoxy)-2′-methylsulfanyl-[2,4]bipyrimidinyl-5-yl]-pyrrolidin-2-(S)-ylmethyl-amine] | 10 |  | 390 | 0.568 | inhibition at 10 µM (delta opioid receptor [2]): 5.77%
COc1ccc(Oc2nc(-c3cnn(C)c3)ncc2NC[C@@H]2CCCN2)cc1 [Cpd 67] | 1 |  | 1560 | 0.194 | 
COc1ccc(Oc2nc(-c3cc(F)cc(OC)c3)ncc2NC[C@@H]2CCCN2)cc1 [Cpd 70] | 47 |  | 2250 |  | 
COc1ccc(Oc2nc(-c3ccc(N)nc3)ncc2NC[C@@H]2CCCN2)cc1 [Cpd 72] |  | 0.905 | 732 | 0.105 | Ki (delta opioid receptor [1]; [6]): 2 nM; inhibition at 10 µM (delta opioid receptor [2]): 15.2%
COc1ccc(Oc2nc(-c3ccc(O)nc3)ncc2NC[C@@H]2CCCN2)cc1 [Cpd 74] | 26 |  | 1060 | 0.856 | inhibition at 10 µM (delta opioid receptor [2]): 2.37%
Oc1ccc(Oc2nc(-c3ccc(O)nc3)ncc2NCC2CCCN2)cc1 (centres unmarked) [Cpd 75] | 36 |  | 5120 |  | 
COc1ccc(Oc2nc(-c3ccc4nccnc4c3)ncc2NC[C@@H]2CCCN2)cc1 [Cpd 76] |  |  | 333 |  | Ki (delta opioid receptor [1]; [6]): 111 nM
COc1ccc(Oc2nc(-c3cnc4[nH]ccc4c3)ncc2NC[C@@H]2CCCN2)cc1 [Cpd 77] |  |  | 313 |  | Ki (delta opioid receptor [1]; [6]): 154 nM
COc1ccc(Oc2nc(-c3ccc4nonc4c3)ncc2NC[C@@H]2CCCN2)cc1 [Cpd 78] | 75 |  | 1880 |  | 
COc1ccc(Oc2nc(-c3cncnc3)ncc2NC[C@@H]2CC(F)(F)CN2)cc1 [Cpd 79] | 95 |  | > 10000 |  | 
COc1ccc(Oc2nc(-c3cncnc3)ncc2NC[C@@H]2C[C@@H](F)CN2)cc1 [Cpd 80] | 2 |  | 106 | 0.113 | 
COc1ccc(Oc2nc(-c3cnc(N)nc3)ncc2NC[C@@H]2CCCN2)cc1 [Cpd 81] |  |  | 569 |  | Ki (delta opioid receptor [1]; [6]): 355 nM
COc1ccc(Oc2nc(-c3cnc(N(C)C)nc3)ncc2NC[C@@H]2CCCN2)cc1 [Cpd 82] | 28 |  | 1050 |  | 

SMILES | Ki (delta opioid receptor [1]; [4]) [nM] | GTPγS δ-opioid receptor Rel Efficacy (delta opioid receptor [2]) | Ki (mu opioid receptor; read-out: μ-binding Ki) [nM] | EC50 (delta opioid receptor [2]; [7]) [µM] | other results
COc1ccc(Oc2nc(-c3cnc(N4CCOCC4)nc3)ncc2NC[C@@H]2CCCN2)cc1 [Cpd 83] | 14 |  | 673 |  | 
COc1ccc(Oc2nc(-c3cnc(N4CCN(C)CC4)nc3)ncc2NC[C@@H]2CCCN2)cc1 [Cpd 84] |  |  | 338 |  | Ki (delta opioid receptor [1]; [6]): 16 nM
c1ncc(-c2ncc(NC[C@@H]3CCCN3)c(Oc3ccc4ncsc4c3)n2)cn1 [Cpd 85] | 2 |  | > 10000 | > 10 | 
N#Cc1cncc(-c2ncc(NC[C@@H]3CCCN3)c(Oc3ccc4ncsc4c3)n2)c1 [Cpd 86] | 2 |  | 1180 | 0.386 | 
COc1ccc(Oc2nc(-c3ccc4c(c3)OCO4)ncc2NC[C@@H]2CCCN2)cc1 [Cpd 93] | 8 | 1.115 |  |  | Ki (mu opioid receptor; μ-binding Ki): 554 nM; EC50 (delta opioid receptor [2]; [5]): 0.072 µM
COc1cccc(Oc2nc(-c3cncc(C#N)c3)ncc2NC[C@@H]2CCCN2)c1 [Cpd 98] | 3 |  | 102 |  | 
CCOc1ccc(Oc2nc(-c3cncc(C#N)c3)ncc2NC[C@@H]2CCCN2)cc1 [Cpd 104] | 8 | 0.921 |  |  | Ki (mu opioid receptor; μ-binding Ki): 190 nM; EC50 (delta opioid receptor [2]; [5]): 0.018 µM
CCOc1ccc(Oc2nc(-c3cncnc3)ncc2NC[C@@H]2CCCN2)cc1 [Cpd 105] | 3 |  | 421 | 0.146 | 
COc1ccc(Oc2nc(-c3cncnc3)ncc2NC2CCCNC2)cc1 (centres unmarked) [Cpd 109] | 1 | 1.102 |  |  | Ki (mu opioid receptor; μ-binding Ki): 522 nM; EC50 (delta opioid receptor [2]; [5]): 0.057 µM
N#Cc1cncc(-c2ncc(NC[C@@H]3CCCN3)c(Oc3ccc(OC(F)F)cc3)n2)c1 [Cpd 110] | 33 | 0.986 |  |  | Ki (mu opioid receptor; μ-binding Ki): 1070 nM; EC50 (delta opioid receptor [2]; [5]): 0.081 µM
CCCOc1ccc(Oc2nc(-c3cncc(C#N)c3)ncc2NC[C@@H]2CCCN2)cc1 [Cpd 113] | 45 | 1.104 |  |  | Ki (mu opioid receptor; μ-binding Ki): 1430 nM; EC50 (delta opioid receptor [2]; [5]): 0.075 µM
COc1ccc(Oc2nc(-c3cnc(C#N)nc3)ncc2NC[C@@H]2CCCN2)cc1 [Cpd 121] | 20 | 1.010 |  |  | Ki (mu opioid receptor; μ-binding Ki): 379 nM; EC50 (delta opioid receptor [2]; [5]): 0.019 µM
FC(F)(F)COc1ccc(Oc2nc(-c3cncnc3)ncc2NC[C@@H]2CCCN2)cc1 [Cpd 123] |  | 1.124 |  | 0.057 | Ki (delta opioid receptor [3]; [8]): 0.4 nM; GTPγS δ-RelEfficacy @200 nM (delta opioid receptor [2]): 0.653
Fc1cncc(-c2ncc(NC[C@@H]3CCCN3)c(Oc3ccc(Cl)cc3)n2)c1 [Cpd 128] |  | 1.144 |  | 0.453 | Ki (delta opioid receptor [3]; [8]): 0.4 nM
N#Cc1cncc(-c2ncc(NC[C@@H]3CCCN3)c(Oc3ccc(Cl)cc3)n2)c1 [Cpd 129] |  | 0.976 |  | 0.0551 | Ki (delta opioid receptor [3]; [8]): 0.3 nM; GTPγS δ-RelEfficacy @200 nM (delta opioid receptor [2]): 0.633
O=C(c1ccc(Oc2nc(-c3cccnc3)ncc2NC[C@@H]2CCCN2)cc1)N1CCCC1 [Cpd 158] |  |  |  |  | Ki (delta opioid receptor [3]; [8]): 1600 nM
O=C(O)c1ccc(Oc2nc(-c3cccnc3)ncc2NC[C@@H]2CCCN2)cc1 [Cpd 159] |  |  |  |  | Ki (delta opioid receptor [3]; [8]): 4450 nM
O=C(c1ccc(Oc2nc(-c3cccnc3)ncc2NC[C@@H]2CCCN2)cc1)N1CCCCC1 [Cpd 160, Piperidin-1-yl-(4-{2-pyridin-3-yl-5-[(pyrrolidin-2-(S)-ylmethyl)-amino]-pyrimidin-4-yloxy}-phenyl)-methanone] |  |  |  |  | Ki (delta opioid receptor [3]; [8]): 338 nM
O=C(c1ccc(Oc2nc(-c3cccnc3)ncc2NC[C@@H]2CCCN2)cc1)N1CCOCC1 [Cpd 161] |  |  |  |  | Ki (delta opioid receptor [3]; [8]): 795 nM
CN1CCN(C(=O)c2ccc(Oc3nc(-c4cccnc4)ncc3NC[C@@H]3CCCN3)cc2)CC1 [Cpd 162] |  |  |  |  | Ki (delta opioid receptor [3]; [8]): 852 nM
O=C(O)c1cccc(Oc2nc(-c3cccnc3)ncc2NC[C@@H]2CCCN2)c1 [Cpd 163] |  |  |  |  | Ki (delta opioid receptor [3]; [8]): 6390 nM
O=C(O)c1cccc(Oc2nc(-c3cncc(F)c3)ncc2NC[C@@H]2CCCN2)c1 [Cpd 164] |  |  |  |  | Ki (delta opioid receptor [3]; [8]): 2280 nM
O=C(O)c1ccc(Oc2nc(-c3cncc(F)c3)ncc2NC[C@@H]2CCCN2)cc1 [Cpd 165] |  |  |  |  | Ki (delta opioid receptor [3]; [8]): 3760 nM
CN1CCN(C(=O)c2cccc(Oc3nc(-c4cccnc4)ncc3NC[C@@H]3CCCN3)c2)CC1 [Cpd 169] |  |  |  |  | Ki (delta opioid receptor [3]; [8]): 33 nM
COc1ccc(Oc2nc(-c3cncnc3)ncc2NC[C@@H](N)CC(C)C)cc1 [Cpd 295] |  |  |  |  | Ki (delta opioid receptor [3]): 64 nM
COc1ccc(Oc2nc(-c3cncc(C#N)c3)ncc2NC[C@H]2CCCC[C@@H]2N)cc1 [Cpd 299] | 23 |  | 222 | 0.129 | 
